Assay [1] deals with T1, hUGT1A1 (Homo sapiens, UniProt P22309).
T1 sequence (P22309 26-533): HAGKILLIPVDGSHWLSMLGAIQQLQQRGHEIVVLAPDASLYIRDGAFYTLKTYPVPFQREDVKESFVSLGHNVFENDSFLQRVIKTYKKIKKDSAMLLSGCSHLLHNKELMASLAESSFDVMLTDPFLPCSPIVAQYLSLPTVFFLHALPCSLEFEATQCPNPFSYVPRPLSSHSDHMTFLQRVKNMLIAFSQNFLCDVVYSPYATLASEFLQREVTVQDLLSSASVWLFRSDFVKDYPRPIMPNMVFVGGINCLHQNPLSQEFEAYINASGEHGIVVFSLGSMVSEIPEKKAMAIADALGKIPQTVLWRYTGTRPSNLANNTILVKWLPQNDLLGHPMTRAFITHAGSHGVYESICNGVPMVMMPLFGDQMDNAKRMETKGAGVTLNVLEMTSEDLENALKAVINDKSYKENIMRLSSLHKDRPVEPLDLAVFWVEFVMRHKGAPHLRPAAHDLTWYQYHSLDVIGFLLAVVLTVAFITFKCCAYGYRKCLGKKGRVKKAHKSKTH
Put plainly: UGT1A1 inhibition assay and inhibition kinetics in human liver microsomes (NHPN-O-glucuronidation). Format: biochemical. To be noted: NHPN-O-glucuronidation in HLM. Background: Liver microsomes are a subcellular fraction often used to study metabolism.

The target in assay [2] is T1, hUGT1A1. Put plainly: UGT1A1 inhibition assay in living HeLa-UGT1A1 cells (NHPN-O-glucuronidation, LC-FD). Format: cell-based. Also noted: expressed in transfected cells; host or cells: HeLa cells, stably transduced with lentivirus (HeLa-UGT1A1). The conditions noted are these: for inhibition of intracellular hUGT1A1: high concentration (100 μM), HeLa-UGT1A1 cells. Here is the method:
A RF-20A FD detector coupled UFLC system (Shimadzu, Kyoto, Japan), equipped with a DGU-20A5R vacuum degasser, two LC-20ADXR pumps, a SIL-20ACXR autosampler and a CTO-20A column oven, was used to quantify NHPN and NHPNG. Chromatographic separation of analytes was carried out on a shim-pack Acchrom HC-C18 analytical column (2.0 × 150 mm, 4.6 μm particle size), while the column temperature was kept at 40°C. The flow rate was kept at 0.5 ml/min. The mobile phase consisted of acetonitrile (A) and water containing 0.2% formic acid (B). The gradient of the mobile phase was as follows: 0–0.5 min, 80–60% B; 0.5–3.5 min, 60–5% B; 3.5–5 min, 5% B; 5–7.5 min, equilibration with 80% B. The excitation wavelength and the emission wavelength were set at 370 and 520 nm, respectively for detection.
The inhibitory effects of herbal products and chemical constituents of GBL extract on UGT1A1 were investigated in living HeLa-UGT1A1 cells by using a specific fluorescent substrate, NHPN, as a probe. HeLa-UGT1A1 cells were cultured at 37°C in 5% CO2 in Modified Eagle’s Medium (MEM) containing 0.1% antibiotic-antimycoticmix, supplemented with 10% fetal bovine serum (FBS). HeLa-UGT1A1 cells were seeded in 96-well plates and cultured for 24 h. The cells were incubated in the medium containing different kinds of herbal products (final concentration, 10 μg/ml) or chemical constituents of GBL extract (diluted to different concentration by DMSO with the final concentration of 1% DMSO in each incubation) for 60 min at 37°C under 5% CO2, and co-incubated with NHPN (final concentration, 50 μM) for another 60 min. […] The validation data for this cell-based flourescence assay can be found in our previous publication ([Zhu et al., 2020]).

Assay [3] concerns the target T1, hUGT1A1. Put plainly: UGT1A1 inhibition assay and inhibition kinetics in human liver microsomes (NHPN-O-glucuronidation). It is filed as biochemical. To be noted: NHPN-O-glucuronidation in HLM; for Ki: second plot of Lineweaver-Burk slopes. The method, then: A set of incubations by changing both the fluorescent substrate concentration and the inhibitor concentration were performed to determine the inhibition kinetic modes and the corresponding inhibition constant (K i ) values. The incubation and analytical sample preparation were conducted as described previously. Goodness-of-fit parameter and Akaike’s Information Criterion (AIC) were employed to select the most appropriate inhibition kinetic modes from the following three inhibition modes including competitive inhibition Eq. 1, noncompetitive inhibition Eq. 2, or mixed inhibition Eq. 3, V=Vmax×[S]/Km×(1+[I]/Ki)+[S] (1) V=Vmax×[S]/(Km+[S])×(1+[I]/Ki) (2) V=Vmax×[S]/Km×(1+[I]/Ki)+[S]×(1+[I]/αKi) (3)
Here, V is the turnover of the glucuronidation reaction; V max is the maximum velocity; S and I are the substrate and inhibitor concentrations, respectively; K m is the Michaelis constant (substrate concentration at 0.5 V max ); K i is the inhibition constant that describes the affinity of the inhibitor towards hUGT1A1. The corresponding K i value of each tested inhibitor is calculated by utilizing the slopes of second plot from Lineweaver-Burk plot versus inhibitor concentrations.

Assay [4] addresses T1, hUGT1A1. Kind of assay: UGT1A1 inhibition assay with recombinant UGT1A1 (NHPN-O-glucuronidation).
Procedure: NHPN was used for evaluating the inhibitory effects of GBL extract on HLM. A typical incubation mixture with a total volume of 200 μl consisted of 50 mM Tris-HCl (pH = 7.4), 5 mM MgCl2, 2 mM UDPGA, NHPN (diluted by DMSO, 5 μM) and the enzymes. […] The final concentration of DMSO in the incubation mixture was less than 1%. […] A concentration of 5 μg/ml was used when recombinant UGT1A1 was the enzyme source. After pre-incubation for 3 min at 37°C, UDPGA was added to the incubation mixture to initiate the reaction. After 60 min incubation at 37°C, the reaction was terminated by adding 200 μl ice-cold acetonitrile, and the incubation mixture was kept on ice. After centrifugation at 20,000×g for 20 min at 4°C, 5 μl aliquots of the supernatant was taken for LC-FD analysis.
The residual activity of hUGT1A1 was determined as follows: Residual activity (%) = (the fluorescence intensity of NHPNG generated in the incubations with inhibitor)/(the fluorescence intensity of NHPNG generated in the incubations without inhibitor) × 100%. A set of incubations with the same fluorescent substrate concentration and different inhibitor concentrations were performed to determine the half maximal inhibition concentration (IC50).
Where [5] appears, read: hUGT1A1-catalyzed NHPN-O-glucuronidation in HeLa-UGT1A1 cells, read-out: IC50.

The values that follow come from publication PMC8899474, “Discovery and Characterization of the Key Constituents in Ginkgo biloba Leaf Extract With Potent Inhibitory Effects on Human UDP-Glucuronosyltransferase 1A1” (Frontiers in Pharmacology, 2022).

Where only a bound is given, the exact number is not on record here.

For the compound `O=c1cc(-c2ccc(O)c(-c3c(O)cc(O)c4c(=O)cc(-c5ccc(O)cc5)oc34)c2)oc2cc(O)cc(O)c12` [Amentoflavone], the figures for the IC50 against hUGT1A1 [1] and on hUGT1A1 [2] (setting [5]) were 410 ± 34 nM and 3290 ± 470 nM, respectively.
On to `O=c1cc(-c2ccc(O)cc2)oc2cc(O)cc(O)c12` [Apigenin], for which the IC50 (commonly the point on the concentration scale where inhibition reaches its midpoint) on hUGT1A1 [2] (setting [5]) came to 1890 ± 240 nM.
With `CC(C)(C)[C@]1(O)CC2OC(=O)CC23C(=O)OC2OC(=O)[C@H](O)C231` (stereo partly shown) [Bilobalide], at hUGT1A1 [2], the IC50 was over 100000 nM and the “inhibition of intracellular hUGT1A1” value is given as “did not inhibit”.
In the case of `COc1ccc(-c2cc(=O)c3c(O)cc(O)cc3o2)cc1-c1c(O)cc(O)c2c(=O)cc(-c3ccc(O)cc3)oc12` [Bilobetin], the IC50 at hUGT1A1 [1] is 200 ± 23 nM; at hUGT1A1 [4] it was 100 to 290 nM; on hUGT1A1 [2] (setting [5]), 410 ± 48 nM. Moreover, the Inhibition mode entry on hUGT1A1 [3] was “Mixed”. Besides, the affinity at hUGT1A1 [3] corresponds to a Ki of 180 nM.
On to `COc1cc(O)c2c(=O)cc(-c3ccc(O)cc3)oc2c1` [Genkwanin], for which, on hUGT1A1 [2] (setting [5]), the IC50 is 1500 ± 460 nM.
Turning to `COc1cc(O)c2c(=O)cc(-c3ccc(OC)c(-c4c(O)cc(O)c5c(=O)cc(-c6ccc(O)cc6)oc45)c3)oc2c1` [Ginkgetin], the IC50 is 150 ± 14 nM against hUGT1A1 [1], 100 to 290 nM on hUGT1A1 [4] and 75 ± 9 nM at hUGT1A1 [2] (setting [5]). Also, the Inhibition mode result on hUGT1A1 [3] is reported as “Mixed”. For the same compound, the Ki (commonly the equilibrium dissociation constant of an inhibitor or competing ligand from its target) on hUGT1A1 [3] turned out to be 70 nM.
As to `C[C@@H]1C(=O)O[C@H]2C[C@@]34[C@H]5C[C@@H](C(C)(C)C)[C@]36[C@@H](OC(=O)[C@@H]6O)O[C@@]4(C(=O)O5)[C@]21O` [Ginkgolide A], the IC50 at hUGT1A1 [2] (setting [5]) was over 100000 nM. Further, the “inhibition of intracellular hUGT1A1” value at hUGT1A1 [2] is reported as “did not inhibit”.
For the compound `COc1ccc(-c2cc(=O)c3c(O)cc(O)c(-c4cc(-c5cc(=O)c6c(O)cc(O)cc6o5)ccc4OC)c3o2)cc1` [Isoginkgetin], the IC50 at hUGT1A1 [1] is 670 ± 85 nM; at hUGT1A1 [4], 100 to 290 nM; on hUGT1A1 [2] (setting [5]) it was 160 ± 20 nM. Further, on hUGT1A1 [3], the Inhibition mode entry is recorded as “Mixed”. This compound displayed a Ki at hUGT1A1 [3] of 740 nM.
Turning to `O=c1c(O)c(-c2ccc(O)cc2)oc2cc(O)cc(O)c12` [Kaempferol], at hUGT1A1 [2] (setting [5]), the IC50 stood at 1380 ± 190 nM.
Consider `COc1cc(-c2oc3cc(O)cc(O)c3c(=O)c2O)ccc1O` [Lsorhamnetin, isorhamnetin], for which, on hUGT1A1 [2] (setting [5]), the IC50 amounted to 1680 ± 340 nM.
As for `O=c1cc(-c2ccc(O)c(O)c2)oc2cc(O)cc(O)c12` [Luteolin], on hUGT1A1 [2] (setting [5]), the IC50 was 1410 ± 170 nM.
`O=c1c(O)c(-c2cc(O)c(O)c(O)c2)oc2cc(O)cc(O)c12` [Myricetin]: at hUGT1A1 [2] (setting [5]), the IC50 stood at 64600 ± 12200 nM.
As to `O=c1c(O)c(-c2ccc(O)c(O)c2)oc2cc(O)cc(O)c12` [Quercetin], the IC50 on hUGT1A1 [2] (setting [5]) worked out at 2050 ± 240 nM.
For `COc1ccc(-c2cc(=O)c3c(O)cc(O)c(-c4cc(-c5cc(=O)c6c(O)cc(OC)cc6o5)ccc4OC)c3o2)cc1` [Sciadopitysin], the results for the IC50 against hUGT1A1 [1] and on hUGT1A1 [2] (setting [5]) were 280 ± 36 nM and 110 ± 9 nM, respectively. Moreover, on hUGT1A1 [3], the Inhibition mode entry is “Mixed”. On hUGT1A1 [3], this compound returned a Ki of 670 nM.
With Ginkgolide B, the “inhibition of intracellular hUGT1A1” value on hUGT1A1 [2] is recorded as “did not inhibit”.
Regarding Ginkgolide C, at hUGT1A1 [2], the “inhibition of intracellular hUGT1A1” value is “did not inhibit”.
